Patent US8252764B2, “Compositions and methods of use of targeting peptides against placenta and adipose tissues” (priority 2000, dated 2012)
Peptide text beside a SMILES is read from it.

Key:
[1] = tested on: HUVECs; experiment: HUVEC chemotaxis assay (Boyden chamber); type: cell-based, human; settings: 1 mM, VEGF-A (10 ng/ml), Boyden chamber
Method: FIG. 33. […] (SEQ ID NO:56) inhibits HUVEC migration. HUVECs were stimulated with VEGF-A (10 ng/ml). The assay was performed in a Boyden microchemotaxis chamber, and cells were allowed to migrate through an 8-μm pore filter for 5 h at 37° C. […] (SEQ ID NO:57) (control) and […] (SEQ ID NO:56) peptides were tested at 1 mM concentration. Migrated cells were stained and five high-power fields (magnitude 100×) for each microwell were counted. Error bars are the standard error of the means of triplicate microwells.
A cell migration assay was performed in a 48-well microchemotaxis chamber (NeuroProbe, Gaithersburg, Md.) according to Bussolini et al. (1995). Polyvinylpyrrolidone-free polycarbonate filters (Nucleopore, Cambridge, Mass.) with 8-μm pores were coated with 1% gelatin for 10 min at room temperature and equilibrated in M199 medium supplemented with 2% FCS. […] (SEQ ID NO:56) or control […] (SEQ ID NO:57) peptide (1 mM) was placed in the lower compartment of a Boyden chamber in M199 medium supplemented with 2% FCS and 10 ng/ml VEGF-A (R&D System). Subconfluent cultures that had been starved overnight were harvested in PBS containing 2.5 mM EDTA, washed once in PBS, and resuspended in M199 medium containing 2% FCS at a final concentration of 2×10^6 cells/ml. […] Five random high-power fields (magnitude 100×) were counted in each well. […]

[2] = biological target: T1, Aminopeptidase A (APA) (Homo sapiens, UniProt Q07075); experiment: APA enzyme assay; type: biochemical
T1 construct: transfected with an expression vector encoding full-length APA cDNA; expressed in transfected cells; host or cells: SK-RC-49 renal carcinoma cells, stably transfected (SK-RC-49/APA)

[3] = biological target: aminopeptidase N (Homo sapiens, UniProt P15144); experiment: Aminopeptidase N activity; type: biochemical; settings: data not shown
[4] = tested on: chicken chorioallantoic membrane (CAM); experiment: CAM assay for angiogenesis; type: in vivo
Method: In vivo angiogenesis was evaluated by a CAM assay (Ribatti et al., 1994). Fertilized eggs from White Leghorn chickens were maintained in constant humidity at 37° C. On the third day of incubation, a square window was opened in the eggshell and 2-3 ml of albumen was removed to detach the developing CAM from the shell. The window was sealed with a glass plate of the same size and the eggs were returned to the incubator. At day 8, 1 mm^3 sterilized gelatin sponges (Gelfoam, Upjohn Co, Kalamazoo, […]) were adsorbed with VEGF-A (20 ng, R&D System) and either […] (SEQ ID NO:56) or control […] (SEQ ID NO:57) peptide (1 mM) in 3 μl PBS and implanted on the top of the growing CAMs under sterile conditions. CAMs were examined daily until day 12 and photographed in ovo with a Leica stereomicroscope. Capillaries emerging from the sponge were counted. The assay was repeated twice.

[5] = tested on: HUVECs; experiment: HUVEC cell growth assay (crystal violet); type: cell-based, human; settings: 1 mM, VEGF-A (10 ng/ml)
Method: FIG. 34. […] (SEQ ID NO:56) inhibits HUVEC proliferation. Cells were stimulated with VEGF-A (10 ng/ml), and growth was evaluated at the indicated times by a colorimetric assay based on crystal violet staining. Error bars are the standard error of the means of triplicate wells. Each experiment was repeated at least twice with similar results.
HUVECs were seeded in 48-well plates (10^4 cells/well) and allowed to attach for 24 h in complete M199 medium. The cells were then starved in M199 medium containing 2% FCS for 24 h. […] (SEQ ID NO:56) or control […] (SEQ ID NO:57) peptide (1 mM) was added to the wells in medium containing 2% FCS and 10 ng/ml VEGF-A (R&D System, Abingdom, UK). After incubation for the indicated times, cells were fixed in 2.5% glutaraldehyde, stained with 0.1% crystal violet in 20% methanol, and solubilized in 10% acetic acid. All treatments were done in triplicate. Cell growth was evaluated by measuring the O.D. at 590 nm in a microplate reader (Bio-Rad Laboratories, Hercules, Calif.). A calibration curve was established and a linear correlation between O.D. and cell counts was observed between 10^3 and 10^5 cells.

[6] = tested on: HUVECs; experiment: Three-dimensional cell culture on Matrigel; type: cell-based, human; settings: HUVECs on three-dimensional matrix gel, not shown
Method: Matrigel (Collaborative Research, Bedford, Mass.) was added at 100 μl per well to 48-well tissue culture plates and allowed to solidify for 10 min at 37° C. HUVECs were starved for 24 h in M199 medium supplemented with 2% FCS before being harvested in PBS containing 2.5 mM EDTA. 10^4 cells were gently added to each of the triplicate wells and allowed to adhere to the gel coating for 30 min at 37° C. Then, medium was replaced with indicated concentrations of […] (SEQ ID NO:56) or […] (SEQ ID NO:57) peptides in complete medium. The plates were photographed after 24 h with an inverted microscope (Canon). The assay was repeated three times.

[7] = tested on: SK-RC-49/APA cells; experiment: Phage binding specificity assay on SK-RC-49/APA cells; type: cell-based; settings: soluble peptide
Method: The cell binding assay was performed with an input of 10^9 TU as described for the cell panning. The specificity was confirmed by adding […] (SEQ ID NO:56) peptide to the binding medium in increasing concentrations. For phage binding on immunocaptured APA, wells were blocked for 1 h at room temperature with PBS/3% BSA and incubated with 10^9 TU for 1 h at room temperature in 50 μl PBS/3% BSA. After eight washes in PBS/1% BSA/0.01% Tween-20 and two washes in PBS, phage were rescued by adding 200 μl of exponentially growing K91Kan E. coli. Each experiment was repeated at least three times.

T1 sequence (Q07075 whole entry): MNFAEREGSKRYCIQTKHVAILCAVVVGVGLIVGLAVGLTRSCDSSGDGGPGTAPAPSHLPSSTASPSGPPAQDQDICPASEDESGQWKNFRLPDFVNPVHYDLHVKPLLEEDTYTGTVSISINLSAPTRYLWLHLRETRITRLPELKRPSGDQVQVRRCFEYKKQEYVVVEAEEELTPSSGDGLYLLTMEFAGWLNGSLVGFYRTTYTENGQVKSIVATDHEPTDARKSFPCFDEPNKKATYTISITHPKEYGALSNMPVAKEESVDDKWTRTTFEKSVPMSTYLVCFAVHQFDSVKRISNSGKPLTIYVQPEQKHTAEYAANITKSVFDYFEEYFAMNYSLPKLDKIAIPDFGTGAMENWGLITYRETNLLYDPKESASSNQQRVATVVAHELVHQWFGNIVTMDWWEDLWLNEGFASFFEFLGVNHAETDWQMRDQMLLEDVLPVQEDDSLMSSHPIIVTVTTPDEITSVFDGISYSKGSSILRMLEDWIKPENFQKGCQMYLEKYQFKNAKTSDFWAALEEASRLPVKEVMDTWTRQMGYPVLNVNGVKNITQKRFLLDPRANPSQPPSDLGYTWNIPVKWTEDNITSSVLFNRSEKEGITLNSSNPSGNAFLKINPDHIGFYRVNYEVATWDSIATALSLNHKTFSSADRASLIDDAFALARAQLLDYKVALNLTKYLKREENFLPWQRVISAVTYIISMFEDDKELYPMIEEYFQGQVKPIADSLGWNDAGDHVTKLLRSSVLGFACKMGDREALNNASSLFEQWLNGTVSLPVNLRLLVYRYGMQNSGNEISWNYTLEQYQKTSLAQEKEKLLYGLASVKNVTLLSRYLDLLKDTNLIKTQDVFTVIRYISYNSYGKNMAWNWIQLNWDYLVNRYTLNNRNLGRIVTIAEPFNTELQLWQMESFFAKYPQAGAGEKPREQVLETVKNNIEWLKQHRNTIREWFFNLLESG
Sequence of aminopeptidase N (P15144 whole entry, species assumed): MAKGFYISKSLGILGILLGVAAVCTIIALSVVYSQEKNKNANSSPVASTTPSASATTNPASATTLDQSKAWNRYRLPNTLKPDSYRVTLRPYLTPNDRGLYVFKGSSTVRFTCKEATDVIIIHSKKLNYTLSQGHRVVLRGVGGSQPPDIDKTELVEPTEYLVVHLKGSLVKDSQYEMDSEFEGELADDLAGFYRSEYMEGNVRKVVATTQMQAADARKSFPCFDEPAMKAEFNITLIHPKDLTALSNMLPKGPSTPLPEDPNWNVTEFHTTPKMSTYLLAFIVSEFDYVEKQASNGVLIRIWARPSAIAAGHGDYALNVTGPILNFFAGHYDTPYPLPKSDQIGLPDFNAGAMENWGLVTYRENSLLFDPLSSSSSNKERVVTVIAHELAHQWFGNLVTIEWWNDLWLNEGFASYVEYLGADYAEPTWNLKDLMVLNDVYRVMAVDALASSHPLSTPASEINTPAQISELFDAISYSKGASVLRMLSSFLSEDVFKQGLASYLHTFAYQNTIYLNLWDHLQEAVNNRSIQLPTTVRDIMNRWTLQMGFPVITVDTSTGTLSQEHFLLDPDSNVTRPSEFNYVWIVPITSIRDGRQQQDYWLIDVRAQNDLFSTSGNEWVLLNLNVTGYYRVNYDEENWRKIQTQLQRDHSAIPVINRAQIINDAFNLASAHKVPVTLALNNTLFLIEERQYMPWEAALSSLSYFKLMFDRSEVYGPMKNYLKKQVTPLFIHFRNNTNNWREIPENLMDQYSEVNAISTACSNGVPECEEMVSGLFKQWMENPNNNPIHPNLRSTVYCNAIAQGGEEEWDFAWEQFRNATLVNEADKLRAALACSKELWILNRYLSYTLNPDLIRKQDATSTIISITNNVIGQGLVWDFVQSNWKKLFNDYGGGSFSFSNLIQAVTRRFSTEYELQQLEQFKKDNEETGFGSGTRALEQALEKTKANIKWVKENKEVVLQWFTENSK

CC[C@H](C)[C@H](NC(=O)[C@H](CO)NC(=O)[C@H](CCC(=O)O)NC(=O)[C@H](CS)NC(=O)[C@H](CCC(=O)O)NC(=O)[C@H](CCCNC(=N)N)NC(=O)[C@@H]1CCCN1C(=O)[C@@H](N)CS)C(=O)N[C@@H](CS)C(=O)O (H-CPRECESIC-OH)
inhibition of chemotaxis of HUVECs [1]: 70% | IC50 ([2]; SK-RC-49/APA cells, α-glutamyl-p-nitroanilide, 2 h at 37° C., read-out: IC50 for APA enzyme inhibition): 800 µM | reduction of APA enzyme activity ([2]; at the highest concentration tested): 60% | effect on aminopeptidase N activity [3]: did not affect the activity | inhibition of neovascularization induced by VEGF-A ([4]; 1 mM, number of capillaries emerging from the sponge): 40% | BLOOD VESSEL NUMBERS ([4]; VEGF-A 20 ng, peptide 1 mM, mean and standard error, two experiments): 5.5 ± 1.41 | inhibition of cell proliferation [5]: 50% | formation of capillary-like network [6]: progressive impairment of the formation of this network | effect on binding of CYNLCIRECESICGADGACWTWCADGCSRSC phage ([7]; data not shown): displaced | competition with CPKVCPRECESNC phage for binding to SK-RC-49/APA cells ([7]; not shown): competed
